Data as given in patent publication US10144746B2 (GLOBAL BLOOD THERAPEUTICS, INC., priority 2015, dated 2018).
Counter-ions that a name gives are not always drawn.

Biological target: Human plasma kallikrein (Homo sapiens (Human), UniProt P03952)
Assay: In vitro plasma kallikrein inhibition assay (chromogenic substrate D-Pro-Phe-Arg-pNa, absorbance at 405 nm, IC50 determination)
Assay type: biochemical
Details: for IC50: read-out: KLKB1 pIC50 (converted)

Sequence of Human plasma kallikrein (P03952 391-638): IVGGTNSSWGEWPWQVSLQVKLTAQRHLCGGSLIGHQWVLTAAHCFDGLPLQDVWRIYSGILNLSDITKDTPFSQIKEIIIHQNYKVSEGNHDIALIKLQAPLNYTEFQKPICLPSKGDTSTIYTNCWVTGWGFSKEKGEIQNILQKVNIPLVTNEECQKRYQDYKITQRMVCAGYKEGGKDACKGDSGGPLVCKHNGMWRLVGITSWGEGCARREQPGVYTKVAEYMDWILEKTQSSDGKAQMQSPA
Sequence of Human plasma kallikrein (P03952 20-390 partner): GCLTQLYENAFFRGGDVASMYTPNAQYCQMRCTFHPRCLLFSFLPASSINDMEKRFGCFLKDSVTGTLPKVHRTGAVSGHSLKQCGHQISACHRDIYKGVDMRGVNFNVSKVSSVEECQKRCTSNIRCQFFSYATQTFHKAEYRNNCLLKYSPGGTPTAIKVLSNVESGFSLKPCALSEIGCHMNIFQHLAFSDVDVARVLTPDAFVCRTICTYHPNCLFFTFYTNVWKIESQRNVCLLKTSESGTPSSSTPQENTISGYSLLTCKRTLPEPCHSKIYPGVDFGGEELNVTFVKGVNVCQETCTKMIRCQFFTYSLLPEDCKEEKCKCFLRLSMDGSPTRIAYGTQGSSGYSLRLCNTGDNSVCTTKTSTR

Question: Which IC50 does the source give for Cc1cc(N)nc(C)c1CNC(=O)c1ccc2c(c1)C1OC2c2ccc(-n3ccc(=O)cc3)cc21 (racemic) [Example 149, (±)-N-[(6-amino-2,4-dimethylpyridin-3-yl]-methyl]-12-(4-oxo-1,4-dihydropyridin-1-yl)-15-oxatetracyclo[6.6.1.0^2,^7.0^9,1^4] pentadeca-2,4,6,9,11,13-hexaene-4-carboxamide] here?
Answer: 5890 nM

Question: How did the “KLKB1 pIC50” value turn out when Cc1cc(N)nc(C)c1CNC(=O)c1ccc2c(c1)C1OC2c2ccc(Br)cc21 (stereo not drawn) was run?
Answer: 6

Question: How did the IC50 turn out when CCc1cc(N)nc(C)c1CNC(=O)c1ccc2c(c1)C1OC2c2ccc(-c3ccc(C)cc3C#N)cc21 (racemic) [Example 136, (±)-N-[(6-amino-4-ethyl-2-methylpyridin-3-yl)methyl]-12-(2-cyano-4-methylphenyl)-15-oxatetracyclo[6.6.1.0^2,^7.0^9,1^4] pentadeca-2,4,6,9,11,13-hexaene-4-carboxamide] was run?
Answer: 3.98 nM

Question: For N=C(N)c1ccc(CNC(=O)c2ccc3c(c2)[C@@H]2O[C@H]3c3ccc(Oc4cccc(F)c4)cc32)cc1 (single isomer, unassigned) [Example 231], which IC50 is on record?
Answer: 33.9 nM

Question: For “(±)-N-[(6-amino-4-ethoxy- 2-methylpyridin-3-yl)methyl]-12- (2,4-difluorophenyl)-16-oxo-15- azatetracyclo[6.6.1.0^2,^7.0^9,1^4] hexadeca-2,4,6,9,11,13- hexaene-4-carboxamide and (±)-N-[(6-amino-4-ethoxy-2- methylpyridin-3-yl)methyl]- 11-(2,4-difluorophenyl)-16-oxo- 15-azatetracyclo[6.6.1.0^2,^7.0^9,1^4] hexadeca-2,4,6,9,11,13- hexaene-4-carboxamide [Example 163]”, which “KLKB1 pIC50” value is on record?
Answer: 6.11

Question: With CCCN(c1cccc(F)c1)c1ccc2c(c1)[C@H]1O[C@@H]2c2ccc(C(=O)NCc3c(C)cc(N)nc3C)cc21 (single isomer, unassigned) [Example 250] as the compound, how does the IC50 read?
Answer: 33.1 nM

Question: With N=C(N)c1ccc(CNC(=O)c2ccc3c(c2)[C@@H]2O[C@H]3c3ccc(N4CCS(=O)(=O)CC4)cc32)cc1 (single isomer, unassigned) [Example 337] as the compound, how does the IC50 read?
Answer: 26.9 nM

Question: How did the IC50 turn out when N=C(N)c1ccc(CNC(=O)c2ccc3c(c2)[C@@H]2O[C@H]3c3ccc(Br)cc32)cc1 (single isomer, unassigned) [Example 206] was run?
Answer: 37.2 nM

Question: With Cc1cc(N)nc(C)c1CNC(=O)c1ccc2c(c1)[C@@H]1O[C@H]2c2ccc(-c3cn4ccccc4n3)cc21 (single isomer, unassigned) [Example 252] as the compound, how does the IC50 read?
Answer: 93.3 nM

Question: For CON=C(N)c1ccc(CNC(=O)c2ccc3c(c2)[C@@H]2O[C@H]3c3ccc(-c4ccc(F)cc4F)cc32)cc1 [Example 225], which “KLKB1 pIC50” value is on record?
Answer: 5

Question: Which IC50 does the source give for CCc1cc(N)nc(C)c1CNC(=O)c1ccc2c(c1)[C@@H]1O[C@H]2c2ccc(-c3ccc(F)cc3F)cc21 (single isomer, unassigned) [Example 183] here?
Answer: 12 nM

Question: Cc1cc(N)nc(C)c1CNC(=O)c1ccc2c(c1)C1OC2c2ccc(-c3cccc(S(C)(=O)=O)c3)cc21 (racemic) [Example 128, (±)-N-[(6-amino-2,4-dimethylpyridin-3-yl)-methyl]-12-(3-methanesulfonylphenyl)-15-oxatetracyclo[6.6.1.0^2,^7.0^9,1^4] pentadeca-2,4,6,9,11,13 hexaene-4-carboxamide] was tested. Which IC50 did it give?
Answer: 933 nM

Question: For COc1cc(N)nc(C)c1CNC(=O)c1ccc2c(c1)C1OC2c2ccc(-c3ccc(F)cc3F)cc21 (stereo not drawn) [Example 80], which “KLKB1 pIC50” value is on record?
Answer: 7.57

Question: “(±)-N-[(6-amino-2,4- dimethylpyridin-3-yl)-methyl]- 12-(2,4-difluorophenyl)-15- methyl-15-azatetracyclo [6.6.1.0^2,^7.0^9,1^4]pentadeca- 2,4,6,9,11,13- hexaene-4-carboxamide and (±)-N-[(6-amino-2,4- dimethylpyridin-3-yl)methyl]- 11-(2,4-difluorophenyl)-15- methyl-15-azatetra-cyclo [6.6.1.0^2,^7.0^9,1^4]pentadeca- 2,4,6,9,11,13-hexaene-4- carboxamide [Example 115]” was tested. Which “KLKB1 pIC50” value did it give?
Answer: 4

Question: Which IC50 does the source give for Nc1noc2c(CNC(=O)c3ccc4c(c3)[C@@H]3O[C@H]4c4ccc(-c5ccccc5F)cc43)cccc12 (single isomer, unassigned) [Example 237] here?
Answer: 10000 nM

Question: How did the “KLKB1 pIC50” value turn out when CON=C(N)c1ccc(CNC(=O)c2ccc3c(c2)[C@@H]2O[C@H]3c3ccc(-c4ccc(F)cc4)cc32)cc1 [Example 241, (1R,8S)-12-(4-fluorophenyl)-N-{[4-(N′-methoxy-carbamimidoyl)pheny]methyl}-15-oxatetracyclo-[6.6.1.0^2,^7.0^9,1^4]pentadeca-2,4,6,9,11,13-hexaene-4-carboxamide] was run?
Answer: 4

Question: Which IC50 does the source give for N=C(N)c1ccc(CNC(=O)c2ccc3c(c2)[C@H]2O[C@@H]3c3cc(C4CC4)c(C4CC4)cc32)cc1 (single isomer, unassigned) [Example 399] here?
Answer: 100 nM

Question: How did the IC50 turn out when CCc1ccc2c(c1)[C@H]1O[C@@H]2c2ccc(C(=O)NCc3ccc(C(=N)N)cc3)cc21 (single isomer, unassigned) [Example 233] was run?
Answer: 7.08 nM

Question: For Cc1cc(N)nc(C)c1CNC(=O)c1ccc2c(c1)[C@@H]1O[C@H]2c2cc(Oc3cccc(F)c3)ccc21 (single isomer, unassigned) [Example 184], which IC50 is on record?
Answer: 75.9 nM

Question: Which IC50 does the source give for Cc1cc(N)nc(C)c1CNC(=O)c1cc(F)c2c(c1)C1OC2c2c(C)cc(-c3ccc(F)cc3)cc21 (racemic) [Example 397, (±)-N-(6-amino-2,4-dimethylpyridin-3-yl) methyl]-6-fluoro-12-(4-fluorophenyl)-10-methyl-15-oxatetracyclo[6.6.1.0^2,^7.0^9,1^4] pentadeca-2(7),3,5,9(14),10,12-hexaene-4-carboxamide] here?
Answer: 20 nM

Question: With Cc1ccncc1-c1ccc2c(c1)[C@H]1O[C@@H]2c2ccc(C(=O)NCc3c(C)cc(N)nc3C)cc21 (single isomer, unassigned) [Example 215] as the compound, how does the IC50 read?
Answer: 79.4 nM

Question: “(±)-N-[(6-amino-2,4- dimethylpyridin-3-yl) methyl]-12-(2,4- difluorophenyl)tetracyclo- [6.6.1.0^2,^7.0^9,1^4]hexadeca- 2,4,6,9,11,13-hexaene-4- carboxamide and (±)-N-[(6- amino-2,4-dimethylpyridin- 3-yl)methyl]-11-(2,4- difluorophenyl)tetracyclo [6.6.1.0^2,^7.0^9,1^4]hexadeca- 2,4,6,9,11,13-hexaene-4- carboxamide [Example 261]” was tested. Which “KLKB1 pIC50” value did it give?
Answer: 6.32

Question: How did the IC50 turn out when Cc1ccc(-c2ccc3c(c2)C2OC3c3ccc(C(=O)NCc4c(C)cc(N)nc4C)cc32)c(C#N)n1 (racemic) [Example 157, (±)-N-[(6-amino-2,4-dimethylpyridin-3-yl)-methyl]-12-(2-cyano-6-methylpyridin-3-yl)-15-oxatetracyclo [6.6.1.0^2,^7.0^9,1^4] pentadeca-2,4,6,9,11,13-hexaene-4-carboxamide] was run?
Answer: 22.9 nM

Question: For Cc1cc(N)nc(C)c1CNC(=O)c1ccc2c(c1)C1OC2c2ccc(-c3ncccc3F)cc21 (racemic) [Example 110, trifluoroacetate salt], which IC50 is on record?
Answer: 162 nM
